# Experiments:
# [1] = tested on: human pulmonary fibroblast (MRC5); assay: TGF-β1-induced activation of human pulmonary fibroblasts (Western blot); format: cell-based; conditions: MRC5, 10 μM co-treatment, 24 hours
# Protocol: Cells were co-treated with various compounds (10 μM) and TGF-β1 for 24 hours. Following this, cell lysates were harvested, and the protein expression was assessed by Western blot analysis. FIG. 3D depicts the examination of TGF-β1-induced fibronectin deposition and α-SMA expression in HCF treated with 10 μM of DMSO, BTP2, WRG-28, or Av through immunofluorescence staining. The images were captured using a confocal microscope, the Olympus FV-1000. FIG. 3E, FIG. 3F, and FIG. 3G illustrate the assessment of CRAC channel activity in HCF, MRC5, and rat HSC-T6. These cells were pretreated with 10 μM of BTP2, WRG-28, or Av for 45 min. The evaluation included measuring the second peak of each calcium wave and the rate of entry. […]
# (§1) Cell lysates were harvested in RIPA buffer (150 mM NaCl, 1 mM EGTA, 50 mM Tris pH 7.4, 10% glycerol, 1% Triton X-100, 1% sodium deoxycholate, 0.1% SDS, and protease inhibitor cocktail) and collected from culture dish with cell scrapers. […] The protein expression levels were assessed by specific primary antibodies, including antibodies against phosphotyrosine (clone 4G10; Millipore), DDR2 (R&D), α-SMA (Sigma), Collagen 1a1 (Boster), E-cadherin (BD Biosciences), SGLT2 (Proteintech), NHE1 (Novus) and β-actin (Clone C4, Millipore), followed by incubating with secondary antibodies conjugated with HRP and detected by ECL kit (Thermo Scientific). […]
# [2] = tested on: NRK49F cells; assay: TGF-β1-induced activation of renal fibroblasts (Western blot); format: cell-based, rat; conditions: 10 μM, 24 hours
# Protocol: FIG. 2A, FIG. 2B, FIG. 2C, FIG. 2D, FIG. 2E, FIG. 2F, FIG. 2G-1, and FIG. 2G-2 display how WRG-28 and Av suppress TGF-β1-induced fibroblasts activation and the differentiation of pericytes into myofibroblasts. […] Each bar represents the mean #SEM. […] The protein levels of collagen 1a1 and α-SMA were assessed using Western blot analysis under various conditions. […] Each bar represents mean±SEM. […] The images were acquired using a confocal microscope (Olympus, MPE). FIG. 2G-1 and FIG. 2G-2 display the measurement of angles between collagen fibers and the cell membrane, conducted using Image J. At least five different images from each condition were analyzed. Each bar represents mean±SEM. […]
# as §1
# [3] = target: CRAC channel (Homo sapiens, UniProt Q96D31); assay: CRAC channel activity / SOCE in MRC5; format: cell-based; set-up: endogenous in cells; conditions: MRC5, 10 μM pretreatment 45 min
# Protocol: Cells were co-treated with various compounds (10 μM) and TGF-β1 for 24 hours. Following this, cell lysates were harvested, and the protein expression was assessed by Western blot analysis. FIG. 3D depicts the examination of TGF-β1-induced fibronectin deposition and α-SMA expression in HCF treated with 10 μM of DMSO, BTP2, WRG-28, or Av through immunofluorescence staining. The images were captured using a confocal microscope, the Olympus FV-1000. FIG. 3E, FIG. 3F, and FIG. 3G illustrate the assessment of CRAC channel activity in HCF, MRC5, and rat HSC-T6. These cells were pretreated with 10 μM of BTP2, WRG-28, or Av for 45 min. The evaluation included measuring the second peak of each calcium wave and the rate of entry. Each bar within the figure represents the mean value derived from 77 to 91 cells for HCF, 31 to 49 cells for MRC5, and 43 to 94 cells for HSC-T6. In all the graphs, *, **, and *** denote p-values of <0.05, 0.01, and 0.001, respectively.
# Cells cultured on a glass-bottom 96 well plate for 48 hours were treated with different compounds (10 μM) and Fura 2-AM (1 μM) simultaneously in a solution containing 145 mM NaCl, 2.8 mM KCl, 2 mM CaCl2, 2 mM MgCl2, 10 mM D-glucose, 10 mM HEPES, pH 7.4 for 40 minutes in the dark. […] All the images were analyzed by using IGOR Pro software. […]
# Chain of CRAC channel (Q96D31 whole entry): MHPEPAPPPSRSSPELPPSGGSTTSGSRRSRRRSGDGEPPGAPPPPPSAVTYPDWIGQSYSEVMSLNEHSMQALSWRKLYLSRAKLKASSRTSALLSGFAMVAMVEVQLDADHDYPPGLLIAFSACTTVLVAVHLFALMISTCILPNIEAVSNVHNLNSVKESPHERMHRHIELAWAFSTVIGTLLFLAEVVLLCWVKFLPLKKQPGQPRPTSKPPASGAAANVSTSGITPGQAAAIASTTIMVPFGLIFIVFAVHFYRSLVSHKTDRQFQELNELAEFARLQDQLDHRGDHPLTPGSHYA
Structure (SMILES),upregulation of α-SMA induced by TGF-β1 [1],TGF-β1-induced upregulation of collagen 1a1 and α-SMA [2],SOCE [3]
Cc1nnsc1C(=O)Nc1ccc(-n2nc(C(F)(F)F)cc2C(F)(F)F)cc1 [BTP2],suppressed,significantly suppressed,
CCNS(=O)(=O)c1ccc(COc2ccc3nc4ccc(=O)cc-4oc3c2)cc1 [WRG-28],suppressed,significantly suppressed,notably reduced
